Data set [1] has as its system Enterococcus faecalis (VRE 1528 R10). The experiment in a line: agar diffusion antimicrobial assay. Type of data set: cell-based. To be noted: for zone of inhibition at 1000 µg/mL: read-out: Inhibition Zone of Test Microorganism. As for the experimental part: (§1) Compounds 1, 2, 3, 5, 9, and 10 were tested for their antimicrobial activities against S. aureus (JMRC:STI 10760), B. subtilis (JMRC:STI 10880), S. aureus MRSA (JMRC: ST 33793) E. faecalis VRE (JMRC: ST 33700), E. coli (JMRC:ST 33699), P. aeruginosa (JMRC:ST 33771), P. aeruginosa (JMRC:ST 33772), M. vaccae (JMRC:STI 10670), S. salmonicolor (JMRC:ST 35974), C. albicans (JMRC:STI 25000), and P. notatum (JMRC:STI 50164)) using agar diffusion assay as previously published. Strains were obtained from the Jena Microbial Resource Collection (JMRC). The bacteria were cultivated on standard I nutrient agar in Petri dishes at 37 °C. Antifungal bioassays were conducted at 30 °C using the basidiomycetous yeast S. salmonicolor and the filamentous ascomycete P. notatum, which were cultivated on malt agar, and the ascomycetous yeast C. albicans, which was cultivated on yeast morphology agar. After inoculation of the test organisms, a disc (9 mm in diameter) was removed from the center of the Petri dish and 50 μL of the test solution (1 mg/mL in DMSO) was added to the cavity. After 18 h of incubation, the inhibiting areola were measured and documented as diameters in mm. Ciprofloxacin (5 µg/mL in deionized water) and amphotericin B (10 µg/mL in DMSO/MeOH 1:1) were used as reference substances against bacterial and fungal strains, respectively.
On the technique in general: In agar diffusion tests the substance spreads into inoculated agar from a disc or well.

Data set [2] has as its system Bacillus subtilis (6633 B1). Put plainly: agar diffusion antimicrobial assay. Type of data set: cell-based. Particulars: Bacillus subtilis (6633 B1), 50 μL of 1 mg/mL in DMSO, 18 h, ciprofloxacin 5 µg/mL; for zone of inhibition at 1000 µg/mL: read-out: Inhibition Zone of Test Microorganism. On the procedure:
as §1

Data set [3] relates to Mycobacterium vaccae (10670 M4). Put plainly: agar diffusion antimicrobial assay. Type of data set: cell-based. To be noted: for zone of inhibition at 1000 µg/mL: Mycolicibacterium vaccae, read-out: Inhibition Zone of Test Microorganism. On the procedure: as §1
In data set [4] the test system is Staphylococcus aureus (MRSA 134/94 R9). The experiment in a line: agar diffusion antimicrobial assay. The format is cell-based. To be noted: 50 μL of 1 mg/mL in DMSO, 18 h, ciprofloxacin 5 µg/mL. As for the experimental part:
as §1

The subject of data set [5] is Escherichia coli (458 B4). Put plainly: agar diffusion antimicrobial assay. Type of data set: cell-based. To be noted: 50 μL of 1 mg/mL in DMSO, 18 h, ciprofloxacin 5 µg/mL. As for the experimental part: as §1
Data set [6] deals with Staphylococcus aureus (511 B3). Put plainly: agar diffusion antimicrobial assay. The format is cell-based. Particulars: 50 μL of 1 mg/mL in DMSO, 18 h, ciprofloxacin 5 µg/mL. As for the experimental part:
as §1

Data set [7] relates to human chronic myeloid leukemia cells (K-562). The experiment in a line: antiproliferation assay (CellTiter-Blue). The format is cell-based. To be noted: for GI50: K-562, 72 h, read-out: Antiproliferative Effect, GI50 (CI 95%); for antiproliferative activity in words: K-562. On the procedure: (§2) In this assay, K-562 (DSM ACC 10), THP-1 (DSM ACC 16), and HeLa (DSM ACC 57) were maintained in Roswell Park Memorial Institute (RPMI) 1640 medium (Cambrex 12-167F) while HUVEC (ATCC CRL-1730) and A549 (DSM ACC 107) were cultured in Dulbecco’s Modified Eagle’s Medium (DMEM) (Cambrex 12-614F). Cells that were grown in the appropriate cell culture medium were supplemented with 10 mL/L ultraglutamine 1 (Cambrex 17-605E/U1), 550 µL/L (50 mg/mL) gentamicin sulfate (Cambrex 17-518Z), and 10% heat inactivated fetal bovine serum (GIBCO Life Technologies 10270-106) at 37 °C. The tested compounds were dissolved in DMSO, and the cells were seeded in 96-well plates at a density of 1 × 10^4 cells/well. As for the antiproliferative effect of the compounds, the cells were incubated for 72 h, and GI50 values were evaluated to be defined as the concentration causing 50% inhibition of proliferation compared to the untreated control. With regard to the cytotoxic assay, HeLa cells were pre-incubated for 48 h without the test compounds. Then, the cells were exposed with different concentrations of compounds and incubated for 72 h. After that, the adherent HeLa cells were fixed by glutaraldehyde and stained with a 0.05% solutions of methylene blue (SERVA 29198) for 15 min. CC50 was evaluated to be defined as the concentration required for the death of 50% of the cell monolayer as compared to control groups. Under our experimental conditions, the optical density measured from the CellTiter-Blue reagent and methylene blue assay is proportional to the number of viable cells. In this experiment, absorbances were measured at 570 nm against the reference wavelength of 600 nm (CellTiter-Blue assay) and at 660 nm (methylene blue assay). Doxorubicin (Adriamycin®) and imatinib (Gleevec®) were used as positive controls for HUVEC, K-562, and HeLa cells. A repeat determination has been conducted in all experiments, and four replicates were assayed. The calculations of the different values of GI50 and CC50 were performed with software Magellan version 3.00 (Tecan Trading AG, Maennedorf, Switzerland).
(In general: Resazurin is reduced to fluorescent resorufin, in cell work by metabolically active cells.)

Data set [8] concerns human umbilical vein endothelial cells (HUVEC). The experiment in a line: antiproliferation assay (CellTiter-Blue). The format is cell-based. To be noted: 72 h, read-out: Antiproliferative Effect, GI50 (CI 95%). On the procedure:
as §2

Data set [9] has as its system human acute monocytic leukemia cells (THP-1). Put plainly: antiproliferation assay (CellTiter-Blue). The format is cell-based. To be noted: for GI50: THP-1, 72 h, read-out: Antiproliferative Effect, GI50 (CI 95%). On the procedure: as §2
Data set [10] relates to human lung carcinoma cells (A549). The experiment in a line: antiproliferation assay (CellTiter-Blue). Type of data set: cell-based. Particulars: A549, 72 h, read-out: Antiproliferative Effect, GI50 (CI 95%). As for the experimental part:
as §2

Data set [11] in a line: cytotoxicity assay (methylene blue). The format is cell-based, human. To be noted: human, HeLa cells (DSM ACC 57); HeLa, 72 h; read-out: Cytotoxicity CC50 (CI 95%). On the procedure:
as §2

The test system of data set [12] is three fungi and eight bacterial strains. Put plainly: agar diffusion assay, whole panel. To be noted: eleven microorganisms. The format is cell-based. As for the experimental part: as §1
For data set [13], the system named is Pseudomonas aeruginosa (K799/61 B9). The experiment in a line: agar diffusion antimicrobial assay. The format is cell-based. To be noted: 18 h; for Inhibition Zone of Test Microorganism: Pseudomonas aeruginosa (K799/61 B9), 50 μL of 1 mg/mL in DMSO, ciprofloxacin 5 µg/mL. On the procedure:
as §1

The subject of data set [14] is Pseudomonas aeruginosa (SG137 B7). The experiment in a line: agar diffusion antimicrobial assay. The format is cell-based. To be noted: 50 μL of 1 mg/mL in DMSO, 18 h, ciprofloxacin 5 µg/mL. On the procedure: as §1
The subject of data set [15] is Candida albicans (C.alb.H8). The experiment in a line: agar diffusion antifungal assay. Type of data set: cell-based. Particulars: for zone of inhibition at 1000 µg/mL: read-out: Inhibition Zone of Test Microorganism; for antifungal activity in words: Candida albicans, agar diffusion. On the procedure: as §1
The test system of data set [16] is Penicillium notatum (JP36 P1). The experiment in a line: agar diffusion antifungal assay. Type of data set: cell-based. As for the experimental part:
as §1

Data set [17] has as its system human cervix carcinoma cells (HeLa). Put plainly: cytotoxicity assay (methylene blue). Type of data set: cell-based. As for the experimental part:
as §2

In data set [18] the test system is Sporobolomyces salmonicolor (549 H4). Put plainly: agar diffusion antifungal assay. Type of data set: cell-based. To be noted: 50 μL of 1 mg/mL in DMSO, 18 h, 30 °C, amphotericin B 10 µg/mL. As for the experimental part:
as §1

The mark [19] stands for this setting: Enterococcus faecalis (VRE 1528 R10), 50 μL of 1 mg/mL in DMSO, 18 h, ciprofloxacin 5 µg/mL.
Where [20] appears, read: Mycobacterium vaccae (10670 M4), 50 μL of 1 mg/mL in DMSO, 18 h, ciprofloxacin 5 µg/mL.
[21] abbreviates: Candida albicans (C.alb.H8), 50 μL of 1 mg/mL in DMSO, 18 h, 30 °C, amphotericin B 10 µg/mL.
Setting [22] is: read-out: Inhibition Zone of Test Microorganism.

“Also recorded” adds a separate entry of the source. Where two headings read alike, the source gives them in different places. A value given as a limit tells only on which side of the number the result lay.

In general, GI50 refers to the concentration at which growth is held to half of that of the control. Usually CC50 stands for the concentration that lowers cell viability or growth by half. A word on the zone of inhibition: it is the extent of the growth-free halo in a diffusion test.

As to `O=C(O)c1cn(C2CC2)c2cc(N3CCNCC3)c(F)cc2c1=O` [Ciprofloxacin, reference compound], the “Inhibition Zone of Test Microorganism” value in data set [1] (setting [19]) was 16 mm; in data set [2], 29 mm; in data set [3] (setting [20]), 22 mm; in [4], “-”; in [5], 32 mm; in [6], 19 mm.
Take `COc1cc2occ(-c3cccc(O)c3O)c(=O)c2c(O)c1OC` [Compound 10, 5,2′,3′-Trihydroxy-6,7-dimethoxyisoflavone]: the GI50 in data set [7] (Homo sapiens, K562) amounted to 7.6 µM; in data set [8] (Homo sapiens), 35.8 µM; in [9] (Homo sapiens), 9.1 µM; in data set [10] (Homo sapiens), 98.8 µM. The “antiproliferative activity in words” value in data set [7] and in data set [9] (THP-1) was “active” in each case. The CC50 at 72 h in data set [11] was more than 100 µM. Besides, the “antimicrobial activity over the panel in words” value in data set [12] was “most active”. The zone of inhibition at 1000 µg/mL in [1] (setting [19]) came out at 13 mm; in [2], 13 mm; in data set [3] (setting [20]), 16 mm; in data set [15] (setting [21]), 13 mm. Also, the “Inhibition Zone of Test Microorganism” value in data set [13], in data set [4] and in data set [14] was “-” each time. Moreover, the “antifungal activity in words” value in data set [15] is “weak activity”.
Consider `O=C1CC(c2cccc(O)c2O)Oc2cc3c(c(O)c21)OCO3` (centres unmarked) [Compound 5, 5,2′,3′-Trihydroxy-6,7-methylenedioxyflavanone], for which the GI50 in data set [7] (Homo sapiens, K562) is 44.3 µM; in [8] (Homo sapiens) it was 69 µM; in data set [9] (Homo sapiens), 16.5 µM; in [10] (Homo sapiens) it was more than 100 µM. In data set [11], the CC50 at 72 h was more than 100 µM. Further, the “antimicrobial activity over the panel in words” value in [12] is on record as “most active; also recorded: broad activity against eight microorganisms out of eleven”. The zone of inhibition at 1000 µg/mL turned out to be 13 mm in data set [1] (setting [19]); 17 mm in data set [13] (Pseudomonas aeruginosa, read-out: Inhibition Zone of Test Microorganism); 13 mm in data set [2]; 20 mm in data set [3] (setting [20]); 13 mm in data set [4] (setting [22]); 15 mm in [6] (setting [22]). The zone of inhibition at 1000 µg/mL in data set [16] (Penicillium chrysogenum, Penicillium notatum (JP36 P1), 50 μL of 1 mg/mL in DMSO, 18 h, 30 °C, amphotericin B 10 µg/mL, read-out: Inhibition Zone of Test Microorganism) came out at 16 mm; in data set [15] (setting [21]), 13 mm. Also, in data set [14], the “Inhibition Zone of Test Microorganism” value is “-”. The “antifungal activity in words” value is listed as “moderate activity” in [16] (Penicillium notatum, agar diffusion) and “weak activity” in [15].
Consider “3,5,3′-Trihydroxy-7,2′-dimethoxyflavonol [Compound 11]”, for which the GI50 is 71.5 µM in data set [7], more than 100 µM in [8], 50.6 µM in [9] and 67 µM in [10]. The same compound showed a CC50 in data set [17] of more than 100 µM.
For the compound `C[C@@H]1[C@H](O)[C@@H](C)/C=C/C=C/C=C/C=C/C=C/C=C/C=C/[C@H](O[C@@H]2O[C@H](C)[C@@H](O)[C@H](N)[C@@H]2O)C[C@@H]2O[C@](O)(C[C@@H](O)C[C@@H](O)[C@H](O)CC[C@@H](O)C[C@@H](O)CC(=O)O[C@H]1C)C[C@H](O)[C@H]2C(=O)O` [Amphotericin B, reference compound], the “Inhibition Zone of Test Microorganism” value in data set [16] (Penicillium notatum (JP36 P1), 50 μL of 1 mg/mL in DMSO, 18 h, 30 °C, amphotericin B 10 µg/mL) stood at 19 mm; in data set [15] (setting [21]), 20 mm; in data set [18], 19 mm.
For the compound `O=C1C[C@@H](c2cccc(O)c2O)Oc2cc(O)cc(O)c21` [Compound 3, (2S)-5,7,2′,3′-Tetrahydroxyflavanone], the GI50 in data set [7] (Homo sapiens, K562) is 32.3 µM; in data set [8] (Homo sapiens) it was more than 100 µM; in data set [9] (Homo sapiens) it was more than 100 µM; in data set [10] (Homo sapiens), more than 100 µM. For the same compound, the “antiproliferative activity in words” value in data set [7] is listed as “selective antiproliferative inhibition effect”. Also, the CC50 at 72 h in data set [11] is more than 100 µM. The “antimicrobial activity over the panel in words” value in data set [12] was “most active”. Moreover, the zone of inhibition at 1000 µg/mL was 17 mm in data set [1] (setting [19]), 12 mm in data set [2] and 23 mm in [3] (setting [20]). Moreover, the “antibacterial activity in words” value is recorded as “highest antibacterial activity” in data set [1] (Enterococcus faecalis VRE, agar diffusion) and “highest antibacterial activity” in data set [3] (Mycobacterium vaccae, agar diffusion, compared to ciprofloxacin). Also, the “Inhibition Zone of Test Microorganism” value in [13], in data set [4] and in data set [14] was “-” each time.

The record behind these values is paper PMC8588511, “Chromane Derivatives from Underground Parts of Iris tenuifolia and Their In Vitro Antimicrobial, Cytotoxicity and Antiproliferative Evaluation” (Molecules, 2021).
